Legend:
[1] = tested on: A549 lung adenocarcinoma cells; test: A549 bromodeoxyuridine (BrdU) cytoblot antiproliferative assay of compound dilution matrix; format: cell-based
Description: An 8× stock solution (128 μM) of each individual compound was made in Dulbecco's Modified Eagle Medium (DMEM) (Gibco 11995-040) containing 10% fetal bovine serum (FBS), […] L-glutamine, and 1% antibiotic/antimycotic solution. From this a 2-fold dilution series was made in DMEM. […] This compound mixture plate provided 4× concentrations of each compound that are transferred to assay plates.
The compound dilution matrix was assayed using the A549 bromodeoxyuri dine (BrdU) cytoblot method. […] Fifteen microliters of the 4× compound mixture matrix was added to each well of the plate containing the cells. The compound mixture matrix was transferred using a 16-channel pipettor (Finnpipette). In addition, control wells with paclitaxel (final concentration 4.6 μM), podophyllotoxin (9.6 μM), and quinacrine (8.5 μM) were added to each plate. Each experiment was conducted in triplicate plates.
After incubation for 48 hours at 37° C., BrdU was added to each well at a concentration of 10 μM. After 16 hours, the media was aspirated and the cells were fixed by the addition of 70% ethanol and phosphate-buffered saline (PBS) at room temperature for 1 hour. The fixative was aspirated and 2N HCl with Tween 20 (polyoxyethylene sorbitan monolaurate) was added to each well and the plates were incubated for 20 minutes at room temperature. The HCl was neutralized with a solution of 2N NaOH and the cells were washed twice with Hank's Balanced Salt Solution (HBSS) and once with PBS containing 0.5% bovine serum albumin (BSA) and 0.1% Tween 20. The wash solution was removed and mouse anti-BrdU primary antibody (PharMingen #555627) was diluted 1:1000 in PBS containing BSA, Tween 20, and secondary antibody at a dilution of 1:2000 (Amersham #NA931). The secondary antibody recognizes the mouse antibody and is conjugated to the enzyme horseradish peroxidase (HRP). After one hour of incubation, the antibody solution was removed and the cells washed once with PBS. After the PBS wash, the HRP substrate (which contains luminol, hydrogen peroxide, and an enhancer such as para-iodophenol) was added to each well. The plates were read using an LJL Analyst. All aspirations as well as the washes with PBS and HBSS were performed using a TECAN™ Power Washer 384. The amount of light output from each well indicates the amount of DNA synthesis that occurred in that well. Decreased light indicates antiproliferative action of the compounds.
Antiproliferative ratios were also calculated for paclitaxel, podophyllotoxin, and quinacrine and used for comparison.
The assays were performed as described in Example 2, above.

[2] = tested on: nocodozole-resistant NocR and Podrii6 cell lines; details: Gupta, Mol. Pharmacol. 30:142-148, 1986; cited from earlier work
[3] = mice, single intraperitoneal injection 10 mg/kg; cited from earlier work
[4] = cited from earlier work
[5] = Homo sapiens, A549, read-out: inhibition of growth

`COC(=O)Nc1nc2ccc(C(=O)c3ccccc3)cc2[nH]1` [Mebendazole, mebendazole] gave an antiproliferative ratio ([1]; mebendazole 0.015 μM + pentamidine isethionate 0 μM) of 1.0, an antiproliferative ratio ([1]; mebendazole 0.03 μM + pentamidine isethionate 0 μM) of 1.4 and an antiproliferative ratio ([1]; mebendazole 0.06 μM + pentamidine isethionate 0 μM) of 1.0. The antiproliferative ratio ([1]; mebendazole 0.13 μM + pentamidine isethionate 0 μM) was 1.5, the antiproliferative ratio ([1]; mebendazole 0.25 μM + pentamidine isethionate 0 μM) was 1.5 and the antiproliferative ratio ([1]; mebendazole 0.5 μM + pentamidine isethionate 0 μM) was 2.8. It also gave an antiproliferative ratio ([1]; mebendazole 1 μM + pentamidine isethionate 0 μM) of 3.4, an antiproliferative ratio ([1]; mebendazole 2 μM + pentamidine isethionate 0 μM) of 5.0 and an antiproliferative ratio ([1]; mebendazole 4 μM + pentamidine isethionate 0 μM) of 4.4.
For `CCCOc1ccc2nc(NC(=O)OC)[nH]c2c1` [Oxibendazole, oxibendazole], the antiproliferative ratio ([1]; oxibendazole 0.015 μM + pentamidine isethionate 0 μM) was 1.0, the antiproliferative ratio ([1]; oxibendazole 0.03 μM + pentamidine isethionate 0 μM) was 1.1 and the antiproliferative ratio ([1]; oxibendazole 0.06 μM + pentamidine isethionate 0 μM) was 1.0. For the same compound, the antiproliferative ratio ([1]; oxibendazole 0.13 μM + pentamidine isethionate 0 μM) was 1.1, the antiproliferative ratio ([1]; oxibendazole 0.25 μM + pentamidine isethionate 0 μM) was 1.0 and the antiproliferative ratio ([1]; oxibendazole 0.5 μM + pentamidine isethionate 0 μM) was 1.6. The antiproliferative ratio ([1]; oxibendazole 1 μM + pentamidine isethionate 0 μM) was 2.9, the antiproliferative ratio ([1]; oxibendazole 2 μM + pentamidine isethionate 0 μM) was 3.2 and the antiproliferative ratio ([1]; oxibendazole 4 μM + pentamidine isethionate 0 μM) was 3.6.
For `c1ccc2[nH]c(-c3cscn3)nc2c1` [Thiabendazole, thiabendazole], the antiproliferative ratio ([1]; thiabendazole 0.25 μM + pentamidine isethionate 0 μM) was 1.2, the antiproliferative ratio ([1]; thiabendazole 0.5 μM + pentamidine isethionate 0 μM) was 1.2 and the antiproliferative ratio ([1]; thiabendazole 1 μM + pentamidine isethionate 0 μM) was 1.2. For the same compound, the antiproliferative ratio ([1]; thiabendazole 2 μM + pentamidine isethionate 0 μM) was 1.2, the antiproliferative ratio ([1]; thiabendazole 4 μM + pentamidine isethionate 0 μM) was 1.2 and the “cross-resistance of nocodozole-resistant cell lines” value [2] was “lack of cross-resistance”.
For `CC(=O)O[C@H]1C(=O)[C@@]2(C)[C@H]([C@H](OC(=O)c3ccccc3)[C@]3(O)C[C@H](OC(=O)[C@H](O)[C@@H](NC(=O)c4ccccc4)c4ccccc4)C(C)=C1C3(C)C)[C@]1(OC(C)=O)CO[C@@H]1C[C@@H]2O` [paclitaxel], the antiproliferative ratio ([1]; control wells, paclitaxel final concentration 4.6 μM) was 4.0.
Compound `CCC[S+]([O-])c1ccc2[nH]c(NC(=O)OC)nc2c1` (stereo not shown) [Albendazole Sulfoxide, albendazole sulfoxide] has an antiproliferative ratio ([1]; albendazole sulfoxide 0.5 μM + pentamidine isethionate 0 μM) of 1.2, an antiproliferative ratio ([1]; albendazole sulfoxide 1 μM + pentamidine isethionate 0 μM) of 1.1 and an antiproliferative ratio ([1]; albendazole sulfoxide 2 μM + pentamidine isethionate 0 μM) of 1.2. The antiproliferative ratio ([1]; albendazole sulfoxide 4 μM + pentamidine isethionate 0 μM) was 1.4 and the antiproliferative ratio ([1]; albendazole sulfoxide 8 μM + pentamidine isethionate 0 μM) was 1.4.
For `N=C(N)c1ccc(OCCCCCOc2ccc(C(=N)N)cc2)cc1` [pentamidine], the “tissue distribution (concentration ranking)” value [3] is given as “The concentration in the kidneys was the highest, followed by that in the liver”.
For `CCCSc1ccc2[nH]c(NC(=O)OC)nc2c1` [Albendazole, albendazole], the antiproliferative ratio ([1]; albendazole 0.03 μM + pentamidine isethionate 0 μM) was 1.3, the antiproliferative ratio ([1]; albendazole 0.06 μM + pentamidine isethionate 0 μM) was 0.9 and the antiproliferative ratio ([1]; albendazole 0.13 μM + pentamidine isethionate 0 μM) was 1.2. The antiproliferative ratio ([1]; albendazole 0.25 μM + pentamidine isethionate 0 μM) was 1.3, the antiproliferative ratio ([1]; albendazole 0.5 μM + pentamidine isethionate 0 μM) was 1.2 and the antiproliferative ratio ([1]; albendazole 1 μM + pentamidine isethionate 0 μM) was 1.4. For the same compound, the antiproliferative ratio ([1]; albendazole 2 μM + pentamidine isethionate 0 μM) was 2.5, the antiproliferative ratio ([1]; albendazole 4 μM + pentamidine isethionate 0 μM) was 2.4 and the antiproliferative ratio ([1]; albendazole 4 μM + pentamidine isethionate 0 μM, listed as albendazole) was “increased no further”. The antiproliferative ratio ([1]; albendazole 8 μM + pentamidine isethionate 0 μM) was 3.1 and the inhibition of growth ([1]; albendazole alone, two micromolar) was 60%.
In the case of `N=C(N)c1ccc(OCCCCCOc2ccc(C(=N)N)cc2)cc1` [Pentamidine Isethionate, 4,4′-diamidino-diphenoxypentane di(β-hydroxyethanesulfonate)], the inhibition at 2 µM [1, 5] is listed as 47%, the inhibition at 4 µM [1, 5] is listed as 55% and the “solubility in ether, acetone, and chloroform” value [4] is listed as “insoluble”. The “solubility in water and glycerin” value [4] was “soluble”.
